Laboratory results: patent publication US5229371A, “Chemical modification of elsamicin A at the 3' and/or 4' OH groups” (Bristol-Myers Squibb Company, priority 1992, dated 1993)
Values after ≈ are worked out from the molar mass of the structure shown. Where two headings read alike, the source gives them in different places.

What was measured:
leukemia P388 [1] = conditions: P388, in vivo; cited from earlier work
melanotic melanoma B16 [2] = conditions: B16, in vitro; cited from earlier work
[3] = system: aerobic gram-positive bacteria; conditions: cited from earlier work
B16-F10 melanoma cells = experiment: cells; conditions: Mus musculus, B16-F10, 72 h, read-out: Cytotoxicity IC50
Experimental: For in vitro cytotoxicity experiment, murine melanoma B16-F10 cells were grown and maintained in Eagle's minimum essential medium (Nissui), which contains kanamycin (60 μg/ml), supplemented with heat-inactivated fetal calf serum (10%) and non-essential amino acids (0.6%) at 37° C. under a humidified atmosphere in a 5% CO2 incubator. Exponentially growing B16-F10 cells were harvested, counted and suspended in the culture medium at the concentration of 2.0×10^4 cells/ml. The cell suspension (180 μl) was planted into wells of a 96-well microtiter plate and incubated for 24 hours. Test compound (20 μl) were added to the wells and the plates were further incubated for 72 hours. The cytotoxic activity was colorimetrically determined at 540 nm after staining viable cells with neutral red solution.

leukemia P388 [4] = conditions: P388, in vitro; cited from earlier work
melanotic melanoma B16 [5] = conditions: B16, in vivo; cited from earlier work
B16 melanoma = experiment: In vivo antitumor activity against B16 melanoma in mice (Q4Dx3, ip); parameters: species or system mouse (male BDF1); conditions: for T/C % of MST / No. of survivors/tested on day 50: Q4D × 3, ip
Experimental: (§1) In vivo antitumor activity of the above five derivatives was tested in the lymphocytic leukemia P388 and melanoma B16 systems. Female CDF1 (for P388) and male BDF1 (for B16) mice were inoculated by ip injection at 10^6 P388 cells and 0.5 ml of a 10% B16 brei per mouse, respectively (day 0).
(§2) The percent increase of median survival time (MST) of treated animals over that of untreated control animals was determined and reported as T/C %.

P388 leukemia = experiment: In vivo antitumor activity against lymphocytic leukemia P388 in mice (Q1Dx3, ip); parameters: species or system mouse (female CDF1); conditions: for T/C % of MST: Q1D × 3, ip; for minimum effective dose (MED) compared with elsamicin A: T/C ≥125 significant
Experimental: as §1, §2

lymphoid leukemia L1210 [6] = conditions: L1210, in vivo; cited from earlier work
lymphoid leukemia L1210 [7] = conditions: L1210, in vitro; cited from earlier work
anaerobic bacteria = conditions: cited from earlier work

COC1C(N)C(OC2C(Oc3cccc4c(O)c5c(=O)oc6ccc(C)c7c(=O)oc(c34)c5c67)OC(C)C(O)C2(C)O)OC(C)C1O (stereo not shown) [Compound 1, Elsamicin A]
activity against murine tumor cells (leukemia P388 [1]): exerts activity
activity against murine tumor cells (melanotic melanoma B16 [2]): exerts activity
antibacterial activity [3]: exhibits antibacterial activity
IC50 (B16-F10 melanoma cells): 0.03 µg/mL (≈ 0.0459 µM)
activity against murine tumor cells (leukemia P388 [4]): exerts activity
activity against murine tumor cells (melanotic melanoma B16 [5]): exerts activity
T/C % of MST (B16 melanoma; B16, 0.1 mg/kg/day): 116%
T/C % of MST (B16 melanoma; B16, 0.3 mg/kg/day): 139%
T/C % of MST (B16 melanoma; B16, 1 mg/kg/day): 179%
No. of survivors/tested on day 50 (B16 melanoma; B16, 3 mg/kg/day): 2/12
T/C % of MST (B16 melanoma; B16, 3 mg/kg/day): ≥ 216%
No. of survivors/tested on day 50 (B16 melanoma; B16, 10 mg/kg/day): 2/12
T/C % of MST (B16 melanoma; B16, 10 mg/kg/day): ≥ 298%
T/C % of MST (P388 leukemia; P388, 0.1 mg/kg/day): 123%
T/C % of MST (P388 leukemia; P388, 0.3 mg/kg/day): 140%
T/C % of MST (P388 leukemia; P388, 1 mg/kg/day): 155%
T/C % of MST (P388 leukemia; P388, 3 mg/kg/day): 180%
T/C % of MST (P388 leukemia; P388, 10 mg/kg/day): 190%
T/C % of MST (P388 leukemia; P388, 20 mg/kg/day): Tox
activity against murine tumor cells (lymphoid leukemia L1210 [6]): exerts activity
activity against murine tumor cells (lymphoid leukemia L1210 [7]): exerts activity
antibacterial activity (anaerobic bacteria): exhibits antibacterial activity

COC1OC2C(C)OC(Oc3cccc4c(O)c5c(=O)oc6ccc(C)c7c(=O)oc(c34)c5c67)C(OC3OC(C)C(O)C(OC)C3N)C2(C)O1 (stereo not shown) [Compound 6d, 3',4'-O-Methoxymethylideneelsamicin A]
IC50 (B16-F10 melanoma cells): 0.05 µg/mL (≈ 0.0719 µM)
T/C % of MST (B16 melanoma; B16, 0.1 mg/kg/day): 120%
T/C % of MST (B16 melanoma; B16, 0.3 mg/kg/day): 137%
T/C % of MST (B16 melanoma; B16, 1 mg/kg/day): 167%
T/C % of MST (B16 melanoma; B16, 3 mg/kg/day): 283%
No. of survivors/tested on day 50 (B16 melanoma; B16, 10 mg/kg/day): 3/4
T/C % of MST (B16 melanoma; B16, 10 mg/kg/day): ≥ 333%
response / therapeutic activity (in words) (B16 melanoma; B16 system): extremely potent therapeutic activity
T/C % values compared with elsamicin A (1) (B16 melanoma; B16 system, 3 and 10 mg/kg/day): higher T/C % values
T/C % of MST (P388 leukemia; P388, 0.1 mg/kg/day): 124%
T/C % of MST (P388 leukemia; P388, 0.3 mg/kg/day): 137%
T/C % of MST (P388 leukemia; P388, 1 mg/kg/day): 167%
T/C % of MST (P388 leukemia; P388, 3 mg/kg/day): 167%
T/C % of MST (P388 leukemia; P388, 10 mg/kg/day): 224%
T/C % of MST (P388 leukemia; P388, 20 mg/kg/day): Tox
minimum effective dose (MED) compared with elsamicin A (P388 leukemia; P388 system): as active as the parent compounds

COC1C(N)C(OC2C(Oc3cccc4c(O)c5c(=O)oc6ccc(C)c7c(=O)oc(c34)c5c67)OC(C)C3OC(C)(C)OC32C)OC(C)C1O (stereo not shown) [Compound 6a, 3',4'-O-Isopropylideneelsamicin A]
IC50 (B16-F10 melanoma cells): 0.025 µg/mL (≈ 0.036 µM)
T/C % of MST (B16 melanoma; B16, 0.1 mg/kg/day): 105%
T/C % of MST (B16 melanoma; B16, 0.3 mg/kg/day): 116%
T/C % of MST (B16 melanoma; B16, 1 mg/kg/day): 166%
T/C % of MST (B16 melanoma; B16, 3 mg/kg/day): 192%
T/C % of MST (B16 melanoma; B16, 10 mg/kg/day): 82%
T/C % of MST (P388 leukemia; P388, 0.1 mg/kg/day): 120%
T/C % of MST (P388 leukemia; P388, 0.3 mg/kg/day): 140%
T/C % of MST (P388 leukemia; P388, 1 mg/kg/day): 170%
T/C % of MST (P388 leukemia; P388, 3 mg/kg/day): 210%
minimum effective dose (MED) compared with elsamicin A (P388 leukemia; P388 system): as active as the parent compounds

COC1C(N)C(OC2C(Oc3cccc4c(O)c5c(=O)oc6ccc(C)c7c(=O)oc(c34)c5c67)OC(C)C3OC(c4ccccc4)OC32C)OC(C)C1O (stereo not shown) [Compound 6c, 3',4'-O-Benzylideneelsamicin A]
IC50 (B16-F10 melanoma cells): 0.07 µg/mL (≈ 0.0944 µM)
T/C % of MST (B16 melanoma; B16, 0.1 mg/kg/day): 121%
T/C % of MST (B16 melanoma; B16, 0.3 mg/kg/day): 114%
T/C % of MST (B16 melanoma; B16, 1 mg/kg/day): 136%
T/C % of MST (B16 melanoma; B16, 3 mg/kg/day): 179%
T/C % of MST (B16 melanoma; B16, 10 mg/kg/day): 186%
T/C % of MST (P388 leukemia; P388, 0.1 mg/kg/day): 110%
T/C % of MST (P388 leukemia; P388, 0.3 mg/kg/day): 130%
T/C % of MST (P388 leukemia; P388, 1 mg/kg/day): 150%
T/C % of MST (P388 leukemia; P388, 3 mg/kg/day): 165%
T/C % of MST (P388 leukemia; P388, 10 mg/kg/day): 180%
T/C % of MST (P388 leukemia; P388, 20 mg/kg/day): Tox
minimum effective dose (MED) compared with elsamicin A (P388 leukemia; P388 system): as active as the parent compounds

COC1C(N)C(OC2C(Oc3cccc4c(O)c5c(=O)oc6ccc(C)c7c(=O)oc(c34)c5c67)OC(C)C(OC3CCCCO3)C2(C)O)OC(C)C1O (stereo not shown) [Compound 8, 4'-O-Tetrahydropyranylelsamicin A]
IC50 (B16-F10 melanoma cells): 0.04 µg/mL (≈ 0.0542 µM)
T/C % of MST (B16 melanoma; B16, 0.1 mg/kg/day): 133%
T/C % of MST (B16 melanoma; B16, 0.3 mg/kg/day): 159%
T/C % of MST (B16 melanoma; B16, 1 mg/kg/day): 248%
No. of survivors/tested on day 50 (B16 melanoma; B16, 3 mg/kg/day): 1/4
T/C % of MST (B16 melanoma; B16, 3 mg/kg/day): ≥ 281%
No. of survivors/tested on day 50 (B16 melanoma; B16, 10 mg/kg/day): 2/4
T/C % of MST (B16 melanoma; B16, 10 mg/kg/day): ≥ 330%
No. of survivors/tested on day 50 (B16 melanoma; B16, 20 mg/kg/day): 3/4
T/C % of MST (B16 melanoma; B16, 20 mg/kg/day): ≥ 370%
MED and T/C % values compared with elsamicin A (1) (B16 melanoma; B16 system): better than elsamicin A (1)
survivors on day 50 (in words) (B16 melanoma; B16 system, 3~20 mg/kg/day): Some survivors
T/C % of MST (P388 leukemia; P388, 0.1 mg/kg/day): 130%
T/C % of MST (P388 leukemia; P388, 0.3 mg/kg/day): 145%
T/C % of MST (P388 leukemia; P388, 1 mg/kg/day): 168%
T/C % of MST (P388 leukemia; P388, 3 mg/kg/day): 190%
T/C % of MST (P388 leukemia; P388, 10 mg/kg/day): 225%
T/C % of MST (P388 leukemia; P388, 20 mg/kg/day): Tox
T/C % values (in words) (P388 leukemia; P388 system): high T/C % values
minimum effective dose (MED) compared with elsamicin A (P388 leukemia; P388 system): three times more potent

COC1C(N)C(OC2C(Oc3cccc4c(O)c5c(=O)oc6ccc(C)c7c(=O)oc(c34)c5c67)OC(C)C3OC4(CCCCC4)OC32C)OC(C)C1O (stereo not shown) [Compound 6b, 3',4'-O-Cyclohexylideneelsamicin A]
IC50 (B16-F10 melanoma cells): 0.04 µg/mL (≈ 0.0545 µM)
T/C % of MST (B16 melanoma; B16, 0.3 mg/kg/day): 111%
T/C % of MST (B16 melanoma; B16, 1 mg/kg/day): 132%
T/C % of MST (B16 melanoma; B16, 3 mg/kg/day): 175%
T/C % of MST (B16 melanoma; B16, 10 mg/kg/day): 200%
T/C % of MST (P388 leukemia; P388, 0.3 mg/kg/day): 120%
T/C % of MST (P388 leukemia; P388, 1 mg/kg/day): 140%
T/C % of MST (P388 leukemia; P388, 3 mg/kg/day): 175%
T/C % of MST (P388 leukemia; P388, 10 mg/kg/day): 165%
